{"source": "patent US7049334B2", "about": "“Enhancement of learning and memory and treatment of amnesia” (priority 2001, dated 2006)", "key": {"rats (spatial memory)": {"tested_on": "rats (spatial memory)", "experiment": "Morris water maze", "assay_type": "in vivo", "protocol": "Morris water maze: Morris water maze was performed in a circular pool (224 cm in diameter, 46 cm in height) located in a room with distinctive visual cues. Water was filled to a depth of 36 cm and a transparent plastic platform (25×25 cm, 32 cm in height) was located at the center of a fixed quadrant. Rats were trained for two days in the task environment: free-swimming in the pool without the transparent plastic platform. Each training session was 2 min and the rats were picked up from the pool by an experimenter. Then, rats received 4 consecutive daily training trials for the following six days. During each training trial, each rat was placed into the water randomly from one of the quadrants. The rat had to swim until it climbed onto the plastic platform submerged underneath the water. The time duration from being placed into the water to climbing onto the plastic platform was recorded and defined as escape latency. […] Each rat stayed on the platform for 60 s, which also served as the interval of trial. Compound 1 (1 mg/kg) or vehicle was daily injected to each rat 10 min before the first training trial. After the last training trial of each day, each rat was dried by a towel, and an electric heater was placed in its home cage.\nSubstantial evidence implicates the hippocampus in acquisition and retention of spatial information. See, e.g., Ohon et al. (1979) Behav. Brain Sci. 2: 316–365; and Barnes (1988) Trend Neurosci. 11: 163–169. The effect of Compound 1 on the acquisition of spatial memory in the Morris water maze was tested. Rats received 4 consecutive training trials every day. Compound 1 (1 mg/kg) was daily injected (i.p., 1 mg/kg) 10 min before the first trial of training. […] The escape latencies of 2˜4 trials were 93.8±8.7 s, 79.3±12/3 s and 57.6±12.5 s for a control group, and 50.4±10.2 s, 47.3±6.8 s and 30.3±10.3 for the Compound 1 group (n=10), respectively. The escape latencies of the first trial on the following 3 training days were also markedly shortened in the Compound 1 group. The escape latencies were 91.1±9.8 s, 47.1±3.9 s and 35.3±6.1 s for the control group, and 55.4±12.8 s, 15.3±2.1 s, and 13.4±1.7 s for the Compound 1 group (n=10), respectively. […] The escape latency is shorter in the Compound 1 group throughout the whole experimental period up to 21 days although Compound 1 was only administered […] for 4 days. The mean escape latency on the day-21 is 13.5±1.8 s and 6.0±0.5 s (n=10 each) for the control group and the Compound 1 group, respectively. From results shown above, Compound 1 is a promising drug for improving learning and memory. Compound 1 was mixed with 1.25% carboxymethylcellulose (CMC) and orally delivered to stomach (10 mg/kg) directly 30 min before the first trial for 6 successive days.\nSince L-NAME antagonized Compound 1-induced LTP enhancement in hippocampal slices, in vivo experiments were performed to test the effect of L-NAME on the improved learning and memory provoked by Compound 1. In these experiments, rats chronically implanted with cannulae were injected intracerebroventrically with L-NAME (1 mmole/10 mL) or saline 10 min before the first trial of daily training, concomitant with i.p. injection of Compound 1 (1 mg/kg). […] Intracerebroventricular administration of KT 5823 also impaired the Compound 1-induced enhancement."}, "rats (active avoidance)": {"tested_on": "rats (active avoidance)", "experiment": "Active avoidance task", "assay_type": "in vivo", "protocol": "For the test of active avoidance, the rat was placed in the dark compartment, facing the door. The door was opened halfway, and the rat had 10 sec to shuttle over the door to lit compartment. Rat was not chosen for this experiment if the rat crossed to the safe side within 10 sec. Foot-shock was turned on at 10 s later. Rat escaped into safe compartment and the door was closed. The retention time on dark shock compartment was measured 48 hr later. The rats were discarded once the rats enter lit compartment within 10 s on the day of context training. Foot-shock was administered 10 s after putting in the dark compartment on day-1. Memory retention was tested on day-2."}, "[1]": {"details": "i.p. 1 mg/kg daily 10 min before first trial, n=10"}, "[2]": {"details": "injection 10 min before foot-shock"}}, "data": [{"smiles": "OCc1ccc(-c2nn(Cc3ccccc3)c3ccccc23)o1", "note": "[Compound 1, 1-benzyl-3-(5′-hydroxymethyl-2′-furyl)-indazole]", "values": [{"measurement": "enhanced learning and memory induced by Compound 1, with L-NAME", "setting": "rats (spatial memory); L-NAME intracerebroventricular 10 min before first trial, with i.p. Compound 1 (1 mg/kg)", "result": "significantly blocked"}, {"measurement": "escape latency, trial 2 of first training day", "setting": "rats (spatial memory); [1]", "result": "50.4 ± 10.2", "unit": "s"}, {"measurement": "escape latency, trial 3 of first training day", "setting": "rats (spatial memory); [1]", "result": "47.3 ± 6.8", "unit": "s"}, {"measurement": "escape latency, trial 4 of first training day", "setting": "rats (spatial memory); i.p. 1 mg/kg daily 10 min before first trial, n=10, in s (unit assumed)", "result": "30.3±10.3"}, {"measurement": "escape latency of the first trial, first of the following 3 training days", "setting": "rats (spatial memory); i.p. 1 mg/kg, n=10", "result": "55.4 ± 12.8", "unit": "s"}, {"measurement": "escape latency of the first trial, second of the following 3 training days", "setting": "rats (spatial memory); i.p. 1 mg/kg, n=10", "result": "15.3 ± 2.1", "unit": "s"}, {"measurement": "escape latency of the first trial, third of the following 3 training days", "setting": "rats (spatial memory); i.p. 1 mg/kg, n=10", "result": "13.4 ± 1.7", "unit": "s"}, {"measurement": "mean escape latency on day-21", "setting": "rats (spatial memory); i.p. 1 mg/kg, n=10", "result": "6.0 ± 0.5", "unit": "s"}, {"measurement": "Compound 1-induced enhancement, with KT 5823", "setting": "rats (spatial memory); intracerebroventricular KT 5823", "result": "impaired"}, {"measurement": "effect of oral administration on memory", "setting": "rats (spatial memory); oral 10 mg/kg in 1.25% CMC, 30 min before first trial for 6 successive days", "result": "promoted short-term and long-term memory"}, {"measurement": "memory enhancement effect induced by Compound 1, with KT5823", "setting": "rats (active avoidance); KT5823 i.c.v. 0.2 nmole", "result": "effectively inhibited"}, {"measurement": "memory enhancement effect induced by Compound 1, with L-NAME", "setting": "rats (active avoidance); L-NAME i.c.v. 1 mmole", "result": "effectively inhibited"}, {"measurement": "escape latency from the shock- to the safe-compartment", "setting": "rats (active avoidance); [2]", "result": "decrease"}, {"measurement": "retention of memory", "setting": "rats (active avoidance); [2]", "result": "noticeable increase"}]}]}
